Results: ChEMBL document CHEMBL6134864, “Discovery of FLT3-ITD Inhibitor Clifutinib: A Novel Biphenylacetylene Urea Derivative in Clinical Trials for the Treatment of Relapsed/Refractory FLT3-ITD+ Acute Myeloid Leukemia” (J Med Chem, 2025)
pIC50: −log10 of the molar value. Activity calls are given as the source filed them. The rule behind the calls is not given here.

Assays:
[1] = Cmax in mouse plasma at 2 mg/kg, iv measured up to 24 hrs by LC-MS/MS analysis; format: ADME, organism-based
[2] = AUC last in mouse plasma at 2 mg/kg, iv measured up to 24 hrs by LC-MS/MS analysis; format: ADME, organism-based
[3] = Clearance in mouse plasma at 2 mg/kg, iv measured up to 24 hrs by LC-MS/MS analysis; format: ADME, organism-based
[4] = Cmax in dog plasma at 1 mg/kg, iv measured up to 24 hrs by LC-MS/MS analysis; format: ADME, organism-based, Canis lupus familiaris
[5] = AUC last in dog plasma at 1 mg/kg, iv measured up to 24 hrs by LC-MS/MS analysis; format: ADME, organism-based, Canis lupus familiaris
[6] = Cmax in dog plasma at 5 mg/kg, po measured up to 24 hrs by LC-MS/MS analysis; format: ADME, organism-based, Canis lupus familiaris
[7] = AUC last in dog plasma at 5 mg/kg, po measured up to 24 hrs by LC-MS/MS analysis; format: ADME, organism-based, Canis lupus familiaris
[8] = Oral bioavailability in dog plasma at 5 mg/kg measured up to 24 hrs by LC-MS/MS analysis; format: ADME, organism-based, Canis lupus familiaris
[9] = Cmax in monkey plasma at 1 mg/kg, iv measured up to 24 hrs by LC-MS/MS analysis; format: ADME, organism-based, Macaca mulatta; conditions: rhesus monkey
[10] = Tmax in monkey plasma at 5 mg/kg, po measured up to 24 hrs by LC-MS/MS analysis; format: ADME, organism-based, Macaca mulatta; conditions: rhesus monkey
[11] = Cmax in monkey plasma at 5 mg/kg, po measured up to 24 hrs by LC-MS/MS analysis; format: ADME, organism-based, Macaca mulatta; conditions: rhesus monkey
[12] = system: BaF3; assay: Antiproliferative activity against mouse BaF3 cells harbouring FLT3-ITD-D835I mutant assessed as inhibition of cell growth incubated for 72 hrs by celltiter-glo luminescent cell viability assay; format: functional, cell-based; conditions: BaF3, 72 h
[13] = system: BaF3; assay: Antiproliferative activity against mouse BaF3 cells harbouring FLT3-ITD-Y842H mutant assessed as inhibition of cell growth incubated for 72 hrs by celltiter-glo luminescent cell viability assay; format: functional, cell-based; conditions: BaF3, 72 h
[14] = system: BaF3; assay: Antiproliferative activity against mouse BaF3 cells harbouring FLT3-ITD-F691L mutant assessed as inhibition of cell growth incubated for 72 hrs by celltiter-glo luminescent cell viability assay; format: functional, cell-based; conditions: BaF3, 72 h
[15] = system: BaF3; assay: Antiproliferative activity against mouse BaF3 cells harbouring FLT3-ITD-F691I mutant assessed as inhibition of cell growth incubated for 72 hrs by celltiter-glo luminescent cell viability assay; format: functional, cell-based; conditions: BaF3, 72 h
[16] = system: BaF3; assay: Antiproliferative activity against mouse BaF3 cells harbouring FLT3-D835V mutant assessed as inhibition of cell growth incubated for 72 hrs by celltiter-glo luminescent cell viability assay; format: functional, cell-based; conditions: BaF3, 72 h
[17] = biological target: Receptor-type tyrosine-protein kinase FLT3 (Homo sapiens) (UniProt P36888); assay: Inhibition of FLT3 in human MV4-11 cells harbouring FLT3-ITD mutant assessed as effect on STAT5 protein level at 1 to 1000 nM measured after 2 hrs by Western blot analysis; format: cell-based; conditions: dose 1-1000 nM
[18] = biological target: Mast/stem cell growth factor receptor Kit (Homo sapiens, UniProt P10721); assay: Inhibition of human KIT by biochemical kinase binding assay
Mast/stem cell growth factor receptor Kit, sequence (P10721 whole entry): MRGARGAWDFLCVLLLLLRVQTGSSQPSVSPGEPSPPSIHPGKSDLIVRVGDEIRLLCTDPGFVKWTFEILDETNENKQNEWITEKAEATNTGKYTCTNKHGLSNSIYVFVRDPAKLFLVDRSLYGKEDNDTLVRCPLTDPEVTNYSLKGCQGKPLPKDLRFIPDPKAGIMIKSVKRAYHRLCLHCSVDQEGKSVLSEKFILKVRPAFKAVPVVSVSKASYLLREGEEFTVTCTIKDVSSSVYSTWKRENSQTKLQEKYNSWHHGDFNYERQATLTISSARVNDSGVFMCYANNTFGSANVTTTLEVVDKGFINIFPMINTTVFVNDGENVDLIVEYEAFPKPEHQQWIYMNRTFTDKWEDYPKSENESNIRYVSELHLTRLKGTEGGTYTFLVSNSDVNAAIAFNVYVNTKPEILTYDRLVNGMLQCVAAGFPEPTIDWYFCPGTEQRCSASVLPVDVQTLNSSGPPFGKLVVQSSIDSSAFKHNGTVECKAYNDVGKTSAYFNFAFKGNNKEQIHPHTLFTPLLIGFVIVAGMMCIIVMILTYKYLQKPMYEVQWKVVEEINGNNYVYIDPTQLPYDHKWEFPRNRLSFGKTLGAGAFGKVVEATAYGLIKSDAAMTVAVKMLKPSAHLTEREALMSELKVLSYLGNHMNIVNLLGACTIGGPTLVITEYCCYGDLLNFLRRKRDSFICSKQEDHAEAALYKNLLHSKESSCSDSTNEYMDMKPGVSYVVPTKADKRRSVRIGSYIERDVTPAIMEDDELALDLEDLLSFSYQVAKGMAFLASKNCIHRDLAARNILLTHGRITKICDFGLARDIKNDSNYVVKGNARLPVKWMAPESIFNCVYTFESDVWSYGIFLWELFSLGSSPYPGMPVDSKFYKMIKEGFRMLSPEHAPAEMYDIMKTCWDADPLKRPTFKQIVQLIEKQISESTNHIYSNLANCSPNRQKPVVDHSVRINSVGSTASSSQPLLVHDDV

[19] = biological target: Platelet-derived growth factor receptor beta (Homo sapiens, UniProt P09619); assay: Inhibition of human PDGFR beta by biochemical kinase binding assay
Platelet-derived growth factor receptor beta, sequence (P09619 whole entry): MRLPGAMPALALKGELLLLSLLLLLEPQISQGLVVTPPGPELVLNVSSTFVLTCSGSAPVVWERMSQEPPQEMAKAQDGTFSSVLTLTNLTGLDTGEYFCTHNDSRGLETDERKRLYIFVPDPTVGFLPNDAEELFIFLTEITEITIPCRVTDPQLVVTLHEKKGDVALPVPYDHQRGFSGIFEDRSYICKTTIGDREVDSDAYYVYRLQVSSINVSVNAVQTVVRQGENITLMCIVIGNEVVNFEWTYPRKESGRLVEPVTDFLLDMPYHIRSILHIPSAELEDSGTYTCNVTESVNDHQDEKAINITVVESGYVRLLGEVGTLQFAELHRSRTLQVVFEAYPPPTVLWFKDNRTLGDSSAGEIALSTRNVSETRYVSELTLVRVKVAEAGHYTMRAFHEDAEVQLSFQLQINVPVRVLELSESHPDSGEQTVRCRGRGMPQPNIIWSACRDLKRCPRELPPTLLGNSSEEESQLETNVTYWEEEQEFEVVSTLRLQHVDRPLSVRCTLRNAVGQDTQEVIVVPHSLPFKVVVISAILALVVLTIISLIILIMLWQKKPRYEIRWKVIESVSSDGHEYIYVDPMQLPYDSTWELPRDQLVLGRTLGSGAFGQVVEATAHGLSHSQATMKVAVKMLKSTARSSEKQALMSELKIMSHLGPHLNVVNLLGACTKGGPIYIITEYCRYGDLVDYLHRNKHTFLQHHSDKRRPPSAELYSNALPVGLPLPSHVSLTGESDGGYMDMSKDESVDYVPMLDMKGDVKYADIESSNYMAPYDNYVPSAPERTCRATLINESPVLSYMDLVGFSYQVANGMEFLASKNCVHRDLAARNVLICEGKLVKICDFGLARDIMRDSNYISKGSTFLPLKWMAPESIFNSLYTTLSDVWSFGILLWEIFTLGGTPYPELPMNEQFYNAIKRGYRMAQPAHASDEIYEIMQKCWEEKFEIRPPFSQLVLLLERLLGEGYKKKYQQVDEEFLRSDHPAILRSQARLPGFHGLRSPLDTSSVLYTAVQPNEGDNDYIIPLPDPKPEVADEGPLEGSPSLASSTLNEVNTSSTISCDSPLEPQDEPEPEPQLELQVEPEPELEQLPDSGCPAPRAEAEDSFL

[20] = biological target: Proto-oncogene tyrosine-protein kinase receptor Ret (Homo sapiens, UniProt P07949, Y791F); assay: Inhibition of human RET Y791F mutant by biochemical kinase binding assay
[21] = biological target: Discoidin domain-containing receptor 2 (Homo sapiens, UniProt Q16832, T654M); assay: Inhibition of human DDR2 T654M mutant by biochemical kinase binding assay
Discoidin domain-containing receptor 2, sequence (Q16832 22-855 T654M limits assumed): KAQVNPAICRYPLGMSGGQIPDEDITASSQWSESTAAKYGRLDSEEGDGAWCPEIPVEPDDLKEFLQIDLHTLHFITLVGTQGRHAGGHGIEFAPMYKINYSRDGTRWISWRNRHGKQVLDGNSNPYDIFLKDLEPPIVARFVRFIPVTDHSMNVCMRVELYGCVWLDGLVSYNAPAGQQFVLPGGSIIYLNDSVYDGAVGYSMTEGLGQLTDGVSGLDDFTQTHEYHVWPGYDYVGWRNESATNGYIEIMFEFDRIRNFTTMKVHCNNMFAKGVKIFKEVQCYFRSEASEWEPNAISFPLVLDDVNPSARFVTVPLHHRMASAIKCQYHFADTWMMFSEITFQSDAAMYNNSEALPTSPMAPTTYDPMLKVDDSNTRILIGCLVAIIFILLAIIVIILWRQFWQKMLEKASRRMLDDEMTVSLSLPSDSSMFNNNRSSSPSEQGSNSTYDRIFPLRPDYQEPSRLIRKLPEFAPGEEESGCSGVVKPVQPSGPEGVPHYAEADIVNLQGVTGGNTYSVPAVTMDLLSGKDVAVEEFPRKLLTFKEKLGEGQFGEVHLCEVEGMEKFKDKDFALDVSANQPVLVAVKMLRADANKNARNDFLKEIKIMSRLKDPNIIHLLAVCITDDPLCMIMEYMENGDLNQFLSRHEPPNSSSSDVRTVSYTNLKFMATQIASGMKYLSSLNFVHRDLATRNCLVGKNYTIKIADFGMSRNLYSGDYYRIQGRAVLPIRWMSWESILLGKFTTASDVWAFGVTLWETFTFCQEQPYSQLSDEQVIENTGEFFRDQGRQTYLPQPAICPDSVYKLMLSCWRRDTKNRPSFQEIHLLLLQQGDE

[22] = biological target: Cytochrome P450 2C8 (Homo sapiens, UniProt P10632); assay: Inhibition of CYP2C8 in human liver microsomes by UPLC-MS/MS analysis; format: ADME, Microsome
Cytochrome P450 2C8, sequence (P10632 whole entry): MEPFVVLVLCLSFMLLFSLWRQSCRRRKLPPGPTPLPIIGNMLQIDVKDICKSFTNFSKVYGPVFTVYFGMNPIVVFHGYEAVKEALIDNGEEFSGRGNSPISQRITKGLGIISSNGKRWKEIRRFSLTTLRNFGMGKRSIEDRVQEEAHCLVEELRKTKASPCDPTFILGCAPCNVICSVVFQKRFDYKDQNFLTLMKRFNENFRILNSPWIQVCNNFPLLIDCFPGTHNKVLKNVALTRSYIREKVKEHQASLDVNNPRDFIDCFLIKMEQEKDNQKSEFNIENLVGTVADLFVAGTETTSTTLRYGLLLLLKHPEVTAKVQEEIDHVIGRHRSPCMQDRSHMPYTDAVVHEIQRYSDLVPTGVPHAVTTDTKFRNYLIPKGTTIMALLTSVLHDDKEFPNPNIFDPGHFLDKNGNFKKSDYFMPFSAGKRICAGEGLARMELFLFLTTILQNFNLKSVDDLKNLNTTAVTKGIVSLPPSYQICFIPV

[23] = biological target: Cytochrome P450 2C9 (Homo sapiens, UniProt P11712); assay: Inhibition of CYP2C9 in human liver microsomes by UPLC-MS/MS analysis; format: ADME, Microsome
Cytochrome P450 2C9, sequence (P11712 whole entry): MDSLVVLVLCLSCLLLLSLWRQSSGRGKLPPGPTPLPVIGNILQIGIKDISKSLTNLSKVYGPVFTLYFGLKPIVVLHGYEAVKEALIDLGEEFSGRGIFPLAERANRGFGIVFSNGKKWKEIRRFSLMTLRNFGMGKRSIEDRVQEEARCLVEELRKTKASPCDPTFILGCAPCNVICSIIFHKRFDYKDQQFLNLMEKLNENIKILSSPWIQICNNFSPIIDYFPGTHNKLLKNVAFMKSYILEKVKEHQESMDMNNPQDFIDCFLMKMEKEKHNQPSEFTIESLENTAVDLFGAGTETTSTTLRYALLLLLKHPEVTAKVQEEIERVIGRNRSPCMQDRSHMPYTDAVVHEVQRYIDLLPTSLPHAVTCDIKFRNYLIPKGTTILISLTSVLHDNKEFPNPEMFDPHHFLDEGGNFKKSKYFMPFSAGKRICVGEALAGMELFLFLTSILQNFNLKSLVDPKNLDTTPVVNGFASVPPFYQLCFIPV

[24] = biological target: Cytochrome P450 2C19 (Homo sapiens, UniProt P33261); assay: Inhibition of CYP2C19 in human liver microsomes by UPLC-MS/MS analysis; format: ADME, Microsome
Cytochrome P450 2C19, sequence (P33261 whole entry): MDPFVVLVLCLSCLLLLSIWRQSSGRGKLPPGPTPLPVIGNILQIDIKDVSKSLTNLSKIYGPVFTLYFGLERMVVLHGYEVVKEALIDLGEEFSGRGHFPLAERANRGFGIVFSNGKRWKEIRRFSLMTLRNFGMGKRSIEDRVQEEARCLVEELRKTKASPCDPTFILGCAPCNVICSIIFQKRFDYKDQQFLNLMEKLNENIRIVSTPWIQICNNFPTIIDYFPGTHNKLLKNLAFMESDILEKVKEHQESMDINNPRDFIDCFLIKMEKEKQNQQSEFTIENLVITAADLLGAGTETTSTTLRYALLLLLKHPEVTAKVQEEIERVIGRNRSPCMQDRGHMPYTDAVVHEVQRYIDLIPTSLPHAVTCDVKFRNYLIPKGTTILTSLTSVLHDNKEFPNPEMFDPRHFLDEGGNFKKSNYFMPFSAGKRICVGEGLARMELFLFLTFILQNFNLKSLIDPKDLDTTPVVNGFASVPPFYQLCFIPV

[25] = biological target: Cytochrome P450 2D6 (Homo sapiens, UniProt P10635); assay: Inhibition of CYP2D6 in human liver microsomes by UPLC-MS/MS analysis; format: ADME, Microsome
Cytochrome P450 2D6, sequence (P10635 whole entry): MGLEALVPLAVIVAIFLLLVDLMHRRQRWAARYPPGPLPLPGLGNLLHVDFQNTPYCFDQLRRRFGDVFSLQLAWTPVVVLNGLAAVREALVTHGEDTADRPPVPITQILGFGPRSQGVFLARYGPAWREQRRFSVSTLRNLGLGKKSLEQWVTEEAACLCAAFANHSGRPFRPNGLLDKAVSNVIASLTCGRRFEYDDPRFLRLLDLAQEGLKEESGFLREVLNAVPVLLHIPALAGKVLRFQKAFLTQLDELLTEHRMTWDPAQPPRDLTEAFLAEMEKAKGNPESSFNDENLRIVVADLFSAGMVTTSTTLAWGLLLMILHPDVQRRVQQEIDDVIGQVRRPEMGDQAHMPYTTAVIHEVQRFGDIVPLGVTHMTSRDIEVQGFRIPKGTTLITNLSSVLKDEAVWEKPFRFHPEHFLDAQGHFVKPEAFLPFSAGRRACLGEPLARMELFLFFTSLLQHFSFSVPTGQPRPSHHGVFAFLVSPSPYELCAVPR

[26] = Toxicity in NOD/SCID mouse assessed as effect on body weight loss at 0.5 to 4.5 mg/kg/day, po administered for 21 days and measured for 31 days post dose; format: organism-based; conditions: in vivo, 504 h, dose 0.5-4.5 mg/kg/day, time 21 day
[27] = system: MOLM-13; assay: Antitumor activity against human MOLM-13 cells xenografted in NOD/SCID mouse model assessed as tumor growth inhibition at […], po by caliper analysis relative to control; format: functional; conditions: dose 1.5 mg/kg/day, read-out: TGI
[28] = system: MOLM-13; assay: Antitumor activity against human MOLM-13 cells xenografted in NOD/SCID mouse model assessed as tumor growth inhibition at 4.5 mg/kg/day, po by caliper analysis relative to control; format: functional; conditions: read-out: TGI
[29] = Tmax in NOD/SCID mouse tumor xenografted with human MV4-11 cells at 0.5 mg/kg, po measured up to 24 hrs by LC-MS/MS analysis; format: ADME, organism-based, Neoplasm
[30] = Tmax in NOD/SCID mouse tumor xenografted with human MV4-11 cells at 4.5 mg/kg, po measured up to 24 hrs by LC-MS/MS analysis; format: ADME, organism-based, Neoplasm
[31] = Cmax in NOD/SCID mouse plasma xenografted with human MV4-11 cells at 4.5 mg/kg, po measured up to 24 hrs by LC-MS/MS analysis; format: ADME, organism-based
[32] = Cmax in NOD/SCID mouse tumor xenografted with human MV4-11 cells at 0.5 mg/kg, po measured up to 24 hrs by LC-MS/MS analysis; format: ADME, organism-based, Neoplasm
[33] = Cmax in NOD/SCID mouse tumor xenografted with human MV4-11 cells at 4.5 mg/kg, po measured up to 24 hrs by LC-MS/MS analysis; format: ADME, organism-based, Neoplasm
[34] = AUC (0 to t) in NOD/SCID mouse plasma xenografted with human MV4-11 cells at […], po measured up to 24 hrs by LC-MS/MS analysis; format: ADME, organism-based; conditions: dose 1.5 mg/kg
[35] = AUC (0 to t) in NOD/SCID mouse tumor xenografted with human MV4-11 cells at 4.5 mg/kg, po measured up to 24 hrs by LC-MS/MS analysis; format: ADME, organism-based, Neoplasm
[36] = system: MOLM-13; assay: cells; conditions: Homo sapiens, MOLM-13, 72 h
Description: Antiproliferative activity against human MOLM-13 cells assessed as inhibition of cell growth incubated for 72 hrs by celltiter-glo luminescent cell viability assay

[37] = system: HL-60; assay: cells; conditions: Homo sapiens, HL-60, 72 h
Description: Antiproliferative activity against human HL-60 cells assessed as inhibition of cell growth incubated for 72 hrs by celltiter-glo luminescent cell viability assay

[38] = system: NCI-H226; assay: cells; conditions: Homo sapiens, NCI-H226, 72 h
Description: Antiproliferative activity against human NCI-H226 cells assessed as inhibition of cell growth incubated for 72 hrs by celltiter-glo luminescent cell viability assay

[39] = system: PC-3; assay: cells; conditions: Homo sapiens, PC-3, 72 h
Description: Antiproliferative activity against human PC-3 cells assessed as inhibition of cell growth incubated for 72 hrs by celltiter-glo luminescent cell viability assay

CC(C)(C)c1cc(NC(=O)Nc2ccc(C#Cc3ccc(OCCCN4CCOCC4)cc3)cc2)no1
Cmax [1]: 1820 ng/mL | AUC(0-t) at 24 h [2]: 1740 ng·h/mL | clearance [3]: 18.9 mL/min/kg | Cmax [4]: 633 ng/mL | AUC(0-t) at 24 h [5]: 1290 ng·h/mL | Cmax [6]: 520 ng/mL | AUC(0-t) at 24 h [7]: 4870 ng·h/mL | bioavailability [8]: 71.9% | Cmax [9]: 4720 ng/mL | Tmax [10]: 4 h | Cmax [11]: 1410 ng/mL | pIC50 [12]: 6.52 | pIC50 [13]: 7.42 | pIC50 [14]: 6.81 | pIC50 [15]: 6.81 | pIC50 [16]: 7.43 | inhibition [17]: inactive | pIC50 [18]: 5.75 | pIC50 [19]: 5.79 | pIC50 [20]: 6.92 | pIC50 [21]: 6.37 | pIC50 [22]: < 4.48 | pIC50 [23]: < 4.48 | pIC50 [24]: < 4.48 | pIC50 [25]: < 4.48 | Activity [26]: Non-toxic | inhibition in vivo at […] [27]: 52% | inhibition in vivo at 4.5 mg/kg/day [28]: 94% | Tmax [29]: 3 h | Tmax [30]: 6 h | Cmax [31]: 199 ng/mL | Cmax [32]: 23.3 ng/mL | Cmax [33]: 307 ng/mL | AUC(0-t) at 24 h [34]: 208 ng·h/mL | AUC(0-t) at 24 h [35]: 4700 ng·h/mL | pIC50 [36]: 9.00 | pIC50 [37]: < 5.00 | pIC50 [38]: < 5.00 | pIC50 [39]: 5.15
